The record followed here is ChEMBL document CHEMBL3991601, “The target landscape of clinical kinase drugs” (Science, 2017).

Experiment [1] addresses T1, Acyl-CoA dehydrogenase family member 11 (Homo sapiens, UniProt Q709F0).
T1 sequence (Q709F0 whole entry): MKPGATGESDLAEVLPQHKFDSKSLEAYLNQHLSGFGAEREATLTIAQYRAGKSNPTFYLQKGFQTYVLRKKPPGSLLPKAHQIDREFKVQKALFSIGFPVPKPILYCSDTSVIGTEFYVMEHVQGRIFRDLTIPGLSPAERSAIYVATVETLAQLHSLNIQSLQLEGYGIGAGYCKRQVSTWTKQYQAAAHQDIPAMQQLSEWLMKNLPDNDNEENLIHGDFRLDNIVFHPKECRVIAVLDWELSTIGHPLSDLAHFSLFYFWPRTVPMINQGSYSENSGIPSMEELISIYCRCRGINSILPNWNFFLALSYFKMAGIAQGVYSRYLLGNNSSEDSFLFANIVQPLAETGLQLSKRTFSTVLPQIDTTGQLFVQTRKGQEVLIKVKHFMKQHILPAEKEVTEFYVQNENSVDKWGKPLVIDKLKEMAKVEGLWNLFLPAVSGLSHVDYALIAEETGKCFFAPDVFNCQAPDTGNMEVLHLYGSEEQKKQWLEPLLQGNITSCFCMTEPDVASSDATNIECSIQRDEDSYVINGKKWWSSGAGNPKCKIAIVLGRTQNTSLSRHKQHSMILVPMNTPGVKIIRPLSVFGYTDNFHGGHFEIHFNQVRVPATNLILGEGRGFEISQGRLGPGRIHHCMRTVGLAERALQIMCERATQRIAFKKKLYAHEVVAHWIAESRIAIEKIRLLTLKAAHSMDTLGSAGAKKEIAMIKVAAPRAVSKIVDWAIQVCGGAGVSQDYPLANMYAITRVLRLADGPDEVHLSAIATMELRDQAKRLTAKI

Experiment [2] deals with Bone morphogenetic protein receptor type-1B (Homo sapiens, UniProt O00238).
Sequence of Bone morphogenetic protein receptor type-1B (O00238 whole entry): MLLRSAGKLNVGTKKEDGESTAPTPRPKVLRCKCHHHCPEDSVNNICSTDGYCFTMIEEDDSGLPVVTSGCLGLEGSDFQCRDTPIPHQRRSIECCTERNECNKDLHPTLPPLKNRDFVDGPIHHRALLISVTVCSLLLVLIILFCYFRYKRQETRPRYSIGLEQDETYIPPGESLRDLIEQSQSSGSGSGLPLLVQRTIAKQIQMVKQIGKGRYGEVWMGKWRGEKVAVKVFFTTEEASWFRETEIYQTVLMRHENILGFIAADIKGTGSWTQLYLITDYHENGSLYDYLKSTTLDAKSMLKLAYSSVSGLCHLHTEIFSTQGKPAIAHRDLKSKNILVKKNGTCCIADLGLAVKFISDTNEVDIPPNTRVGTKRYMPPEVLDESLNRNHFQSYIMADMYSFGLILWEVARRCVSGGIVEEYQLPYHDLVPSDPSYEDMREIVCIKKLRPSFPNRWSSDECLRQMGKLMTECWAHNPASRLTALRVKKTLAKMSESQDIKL
The target of experiment [3] is Cyclin-dependent kinase 3 (Homo sapiens, UniProt Q00526).
In another experiment the target is GTP-binding protein 4 (Homo sapiens, UniProt Q9BZE4).
The target in experiment [4] is Mitogen-activated protein kinase kinase kinase kinase 4 (Homo sapiens, UniProt O95819).
Sequence of Mitogen-activated protein kinase kinase kinase kinase 4 (O95819 whole entry): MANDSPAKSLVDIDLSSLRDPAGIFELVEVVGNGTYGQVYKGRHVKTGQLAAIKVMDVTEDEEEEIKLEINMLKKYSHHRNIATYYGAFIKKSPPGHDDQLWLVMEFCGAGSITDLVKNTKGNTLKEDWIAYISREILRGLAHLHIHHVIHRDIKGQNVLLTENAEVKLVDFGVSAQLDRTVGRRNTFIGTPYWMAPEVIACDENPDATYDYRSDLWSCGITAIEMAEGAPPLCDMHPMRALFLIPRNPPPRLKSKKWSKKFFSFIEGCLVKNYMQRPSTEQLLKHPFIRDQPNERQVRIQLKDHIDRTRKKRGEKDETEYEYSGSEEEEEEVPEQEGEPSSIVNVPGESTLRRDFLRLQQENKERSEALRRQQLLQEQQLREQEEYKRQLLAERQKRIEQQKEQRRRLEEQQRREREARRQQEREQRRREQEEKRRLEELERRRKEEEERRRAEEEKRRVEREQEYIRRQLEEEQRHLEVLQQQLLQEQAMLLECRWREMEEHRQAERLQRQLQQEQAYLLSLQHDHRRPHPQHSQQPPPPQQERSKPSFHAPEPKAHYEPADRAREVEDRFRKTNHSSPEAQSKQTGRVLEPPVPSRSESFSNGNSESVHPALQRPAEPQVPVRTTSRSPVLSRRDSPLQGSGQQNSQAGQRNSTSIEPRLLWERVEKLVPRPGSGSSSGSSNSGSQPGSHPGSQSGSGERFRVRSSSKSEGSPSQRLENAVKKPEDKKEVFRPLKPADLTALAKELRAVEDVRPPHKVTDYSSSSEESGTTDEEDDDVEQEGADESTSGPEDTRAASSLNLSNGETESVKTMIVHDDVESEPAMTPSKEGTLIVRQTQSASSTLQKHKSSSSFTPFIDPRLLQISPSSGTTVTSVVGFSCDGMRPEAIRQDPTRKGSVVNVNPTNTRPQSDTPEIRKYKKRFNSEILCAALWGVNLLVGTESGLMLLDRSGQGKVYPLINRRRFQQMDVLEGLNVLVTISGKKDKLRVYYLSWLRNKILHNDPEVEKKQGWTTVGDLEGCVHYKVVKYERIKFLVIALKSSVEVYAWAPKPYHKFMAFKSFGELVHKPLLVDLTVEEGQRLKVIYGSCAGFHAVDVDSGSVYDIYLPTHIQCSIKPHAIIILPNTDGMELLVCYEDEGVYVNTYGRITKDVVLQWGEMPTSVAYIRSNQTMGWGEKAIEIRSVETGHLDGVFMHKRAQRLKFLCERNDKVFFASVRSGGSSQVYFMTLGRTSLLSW
Experiment [5] concerns the target Mitogen-activated protein kinase 10 (Homo sapiens, UniProt P53779).
The target in experiment [6] is Protein-tyrosine kinase 6 (Homo sapiens, UniProt Q13882).
Sequence of Protein-tyrosine kinase 6 (Q13882 whole entry): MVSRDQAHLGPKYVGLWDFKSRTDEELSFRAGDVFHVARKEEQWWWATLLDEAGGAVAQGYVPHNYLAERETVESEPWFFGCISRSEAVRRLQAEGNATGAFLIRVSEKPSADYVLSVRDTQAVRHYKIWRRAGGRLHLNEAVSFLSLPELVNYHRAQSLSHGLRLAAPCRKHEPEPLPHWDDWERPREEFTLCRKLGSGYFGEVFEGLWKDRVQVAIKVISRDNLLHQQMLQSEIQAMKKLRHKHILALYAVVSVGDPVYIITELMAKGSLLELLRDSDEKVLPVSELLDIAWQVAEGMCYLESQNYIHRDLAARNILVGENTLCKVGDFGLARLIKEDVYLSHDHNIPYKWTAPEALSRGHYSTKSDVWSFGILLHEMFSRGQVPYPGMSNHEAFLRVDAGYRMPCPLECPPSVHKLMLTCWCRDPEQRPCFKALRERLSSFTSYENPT
For experiment [7], the target named is Serine/threonine-protein kinase SIK2 (Homo sapiens, UniProt Q9H0K1).
A further experiment addresses T2, ADP/ATP translocase 2 (Homo sapiens, UniProt P05141).
T2 sequence (P05141 whole entry): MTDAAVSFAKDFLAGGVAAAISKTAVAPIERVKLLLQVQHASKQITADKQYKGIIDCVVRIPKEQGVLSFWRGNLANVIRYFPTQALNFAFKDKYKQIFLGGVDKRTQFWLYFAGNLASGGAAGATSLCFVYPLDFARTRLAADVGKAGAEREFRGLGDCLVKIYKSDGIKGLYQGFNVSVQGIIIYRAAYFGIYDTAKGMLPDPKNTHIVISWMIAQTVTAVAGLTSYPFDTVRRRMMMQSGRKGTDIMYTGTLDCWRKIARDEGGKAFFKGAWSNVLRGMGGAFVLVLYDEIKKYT

In experiment [8] the target is Serine/threonine-protein kinase 10 (Homo sapiens, UniProt O94804).
Sequence of Serine/threonine-protein kinase 10 (O94804 whole entry): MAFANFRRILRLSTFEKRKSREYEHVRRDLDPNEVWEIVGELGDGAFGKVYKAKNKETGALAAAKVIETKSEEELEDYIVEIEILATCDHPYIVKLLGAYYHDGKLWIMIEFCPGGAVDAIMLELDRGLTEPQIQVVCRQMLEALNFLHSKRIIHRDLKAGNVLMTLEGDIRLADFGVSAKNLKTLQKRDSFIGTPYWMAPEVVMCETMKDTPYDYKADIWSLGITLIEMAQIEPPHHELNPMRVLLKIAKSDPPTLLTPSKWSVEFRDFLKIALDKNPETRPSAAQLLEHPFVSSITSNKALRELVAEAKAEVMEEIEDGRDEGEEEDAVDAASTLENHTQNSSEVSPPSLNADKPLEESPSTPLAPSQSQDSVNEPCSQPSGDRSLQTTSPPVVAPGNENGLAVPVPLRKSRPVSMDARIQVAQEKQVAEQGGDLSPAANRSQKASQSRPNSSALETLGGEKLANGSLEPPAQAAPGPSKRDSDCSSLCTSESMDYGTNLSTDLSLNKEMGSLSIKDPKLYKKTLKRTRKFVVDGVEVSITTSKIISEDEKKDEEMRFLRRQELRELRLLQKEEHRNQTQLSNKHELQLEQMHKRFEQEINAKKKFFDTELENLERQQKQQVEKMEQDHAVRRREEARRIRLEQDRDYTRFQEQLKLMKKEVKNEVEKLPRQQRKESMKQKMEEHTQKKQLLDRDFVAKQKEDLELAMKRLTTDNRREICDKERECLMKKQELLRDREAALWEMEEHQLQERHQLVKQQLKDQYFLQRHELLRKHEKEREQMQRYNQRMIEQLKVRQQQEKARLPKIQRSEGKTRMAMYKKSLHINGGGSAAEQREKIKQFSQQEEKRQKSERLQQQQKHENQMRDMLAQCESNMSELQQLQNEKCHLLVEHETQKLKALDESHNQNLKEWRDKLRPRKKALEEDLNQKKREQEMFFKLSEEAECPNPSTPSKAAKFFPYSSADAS
Experiment [9] has as its target Non-receptor tyrosine-protein kinase TYK2 (Homo sapiens, UniProt P29597).
Experiment [10] addresses T3, Serine/threonine-protein kinase ULK1 (Homo sapiens, UniProt O75385).
T3 sequence (O75385 whole entry): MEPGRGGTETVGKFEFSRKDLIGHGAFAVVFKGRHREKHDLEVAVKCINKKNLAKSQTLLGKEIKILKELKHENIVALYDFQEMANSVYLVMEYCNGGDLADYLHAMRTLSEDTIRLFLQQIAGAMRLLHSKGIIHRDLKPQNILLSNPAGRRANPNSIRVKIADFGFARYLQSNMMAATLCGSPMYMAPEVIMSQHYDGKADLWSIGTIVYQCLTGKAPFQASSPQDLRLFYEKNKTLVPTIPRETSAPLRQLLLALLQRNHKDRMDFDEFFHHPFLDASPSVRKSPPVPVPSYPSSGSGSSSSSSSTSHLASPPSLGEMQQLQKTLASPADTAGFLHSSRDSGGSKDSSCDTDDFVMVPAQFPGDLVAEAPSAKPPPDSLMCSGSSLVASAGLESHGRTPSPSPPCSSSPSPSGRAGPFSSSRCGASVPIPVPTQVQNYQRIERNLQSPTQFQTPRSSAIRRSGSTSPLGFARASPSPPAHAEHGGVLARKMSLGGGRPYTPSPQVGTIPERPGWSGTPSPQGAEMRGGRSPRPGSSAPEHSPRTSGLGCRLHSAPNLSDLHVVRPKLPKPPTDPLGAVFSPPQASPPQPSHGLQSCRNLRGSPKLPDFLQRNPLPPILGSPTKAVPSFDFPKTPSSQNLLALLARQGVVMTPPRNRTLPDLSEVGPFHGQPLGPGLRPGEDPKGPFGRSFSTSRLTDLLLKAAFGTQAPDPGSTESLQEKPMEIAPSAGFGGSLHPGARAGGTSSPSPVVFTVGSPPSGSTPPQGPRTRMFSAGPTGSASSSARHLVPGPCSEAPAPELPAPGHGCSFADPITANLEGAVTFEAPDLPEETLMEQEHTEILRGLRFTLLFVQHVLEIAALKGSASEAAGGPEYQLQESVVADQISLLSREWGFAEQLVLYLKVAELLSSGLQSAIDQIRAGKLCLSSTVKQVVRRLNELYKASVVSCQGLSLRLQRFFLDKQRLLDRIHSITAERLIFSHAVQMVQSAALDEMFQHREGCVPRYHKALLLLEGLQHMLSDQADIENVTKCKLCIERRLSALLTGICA

A further experiment has as its target Wee1-like protein kinase (Homo sapiens, UniProt P30291).

Calls of active or inactive are those of the source. Cut-off read from the data, not from the text of the source, for most assays here: actives have a measured Kd and inactives only a lower limit. Some results are limits rather than exact numbers.
Note: in the data inactive means no Kd found up to 30 µM.

Sequence of Mitogen-activated protein kinase 10 (P53779 whole entry): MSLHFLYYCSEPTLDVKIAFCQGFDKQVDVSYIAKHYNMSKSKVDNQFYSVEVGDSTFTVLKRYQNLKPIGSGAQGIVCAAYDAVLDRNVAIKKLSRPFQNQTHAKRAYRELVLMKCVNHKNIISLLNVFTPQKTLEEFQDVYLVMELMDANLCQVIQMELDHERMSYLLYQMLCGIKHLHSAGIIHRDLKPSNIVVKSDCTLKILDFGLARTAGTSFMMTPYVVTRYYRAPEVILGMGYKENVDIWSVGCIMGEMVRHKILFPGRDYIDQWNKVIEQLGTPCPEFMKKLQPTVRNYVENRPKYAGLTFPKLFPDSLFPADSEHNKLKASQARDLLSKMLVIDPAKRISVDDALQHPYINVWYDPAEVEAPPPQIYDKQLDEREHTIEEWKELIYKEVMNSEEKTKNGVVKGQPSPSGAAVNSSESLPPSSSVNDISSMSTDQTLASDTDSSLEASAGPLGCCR
Sequence of Non-receptor tyrosine-protein kinase TYK2 (P29597 whole entry): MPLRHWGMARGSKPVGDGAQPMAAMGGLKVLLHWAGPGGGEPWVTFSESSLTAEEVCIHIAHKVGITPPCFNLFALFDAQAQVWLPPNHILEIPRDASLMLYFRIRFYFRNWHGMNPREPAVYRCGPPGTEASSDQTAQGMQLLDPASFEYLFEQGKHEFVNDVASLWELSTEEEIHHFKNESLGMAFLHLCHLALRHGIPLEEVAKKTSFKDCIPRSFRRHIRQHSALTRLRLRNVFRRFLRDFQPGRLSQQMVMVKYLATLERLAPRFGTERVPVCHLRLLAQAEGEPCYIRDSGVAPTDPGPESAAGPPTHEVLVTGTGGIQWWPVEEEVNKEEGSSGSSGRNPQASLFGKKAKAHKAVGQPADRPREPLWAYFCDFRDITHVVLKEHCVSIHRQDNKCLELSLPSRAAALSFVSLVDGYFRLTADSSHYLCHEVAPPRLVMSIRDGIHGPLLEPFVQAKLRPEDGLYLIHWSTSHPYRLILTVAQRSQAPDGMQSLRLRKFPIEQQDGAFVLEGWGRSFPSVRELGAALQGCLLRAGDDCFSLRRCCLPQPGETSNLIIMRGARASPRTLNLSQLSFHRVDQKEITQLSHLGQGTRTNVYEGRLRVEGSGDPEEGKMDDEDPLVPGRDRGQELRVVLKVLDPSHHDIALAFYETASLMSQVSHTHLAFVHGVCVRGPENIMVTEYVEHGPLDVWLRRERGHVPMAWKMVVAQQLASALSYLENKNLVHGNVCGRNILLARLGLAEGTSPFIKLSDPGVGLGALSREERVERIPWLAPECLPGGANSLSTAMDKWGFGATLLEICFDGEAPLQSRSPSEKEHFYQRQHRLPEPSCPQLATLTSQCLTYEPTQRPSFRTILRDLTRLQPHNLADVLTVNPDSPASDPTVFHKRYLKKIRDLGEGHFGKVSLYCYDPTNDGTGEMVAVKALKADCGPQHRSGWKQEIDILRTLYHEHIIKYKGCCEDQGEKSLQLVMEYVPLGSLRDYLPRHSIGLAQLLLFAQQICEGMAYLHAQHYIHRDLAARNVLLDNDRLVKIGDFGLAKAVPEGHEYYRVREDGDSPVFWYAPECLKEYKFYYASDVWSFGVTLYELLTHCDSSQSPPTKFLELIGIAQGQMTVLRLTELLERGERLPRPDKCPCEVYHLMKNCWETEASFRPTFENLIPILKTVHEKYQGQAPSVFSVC

One may read the Kd as the free concentration of one partner at which half of the binding sites on the other are occupied at equilibrium, for simple one-to-one binding. In the case of `Cc1cc(-c2cc(O)ccc2Cl)cc2nnc(Nc3ccc(OCCN4CCCC4)cc3)nc12`, the Kd (in [1]; in [2]; in experiment [3]; at GTP-binding protein 4; in experiment [4]; in experiment [5]) was > 30 µM (inactive) in each case. Besides, the Kd is > 30 µM (inactive) in [6]; 0.002 µM (active) in experiment [7]; > 30 µM (inactive) at ADP/ATP translocase 2; > 30 µM (inactive) in [8]; 0.0007 µM (active) in experiment [9]; > 30 µM (inactive) in experiment [10]. The Kd at Wee1-like protein kinase was > 30 µM (inactive).

`O=C1NC(=O)/C(=C/c2ccc3nccc(-c4ccncc4)c3c2)S1` [GSK-1059615]: the Kd (in [1]; in experiment [2]; in experiment [3]; at GTP-binding protein 4; in [4]; in experiment [5]) was > 30 µM (inactive) throughout. Moreover, the Kd in experiment [6] is > 30 µM (inactive); in [7] it was > 30 µM (inactive); at ADP/ATP translocase 2 it was > 30 µM (inactive); in experiment [8], 0.317 µM (active); in [9], > 30 µM (inactive); in [10], > 30 µM (inactive). Also, at Wee1-like protein kinase, the Kd was > 30 µM (inactive).

For the molecule `CC[C@@H]1C(=O)N(C)c2cnc(Nc3ccc(C(=O)N[C@H]4CC[C@H](N5CCN(CC6CC6)CC5)CC4)cc3OC)nc2N1C(C)C` [VOLASERTIB], the Kd (in experiment [1]; in experiment [2]; in experiment [3]; on GTP-binding protein 4; in experiment [4]; in experiment [5]) was > 30 µM (inactive) throughout. Moreover, the Kd (in experiment [6]; in experiment [7]; at ADP/ATP translocase 2; in experiment [8]; in experiment [9]; in experiment [10]) was > 30 µM (inactive) in each case. Besides, on Wee1-like protein kinase, the Kd was > 30 µM (inactive).

As to `CO[C@H]1C[C@@H]2CC[C@@H](C)[C@@](O)(O2)C(=O)C(=O)N2CCCC[C@H]2C(=O)O[C@H]([C@H](C)C[C@@H]2CC[C@@H](OCCO)[C@H](OC)C2)CC(=O)[C@H](C)/C=C(\C)[C@@H](O)[C@@H](OC)C(=O)[C@H](C)C[C@H](C)/C=C/C=C/C=C/1C` [EVEROLIMUS], the Kd (in experiment [1]; in experiment [2]; in [3]; at GTP-binding protein 4; in experiment [4]; in experiment [5]) was > 30 µM (inactive) in each case. In addition, the Kd (in [6]; in experiment [7]; at ADP/ATP translocase 2; in experiment [8]; in [9]; in experiment [10]) was > 30 µM (inactive) in each case. At Wee1-like protein kinase, the Kd is > 30 µM (inactive).

Turning to `CC(C)Nc1cc(-c2c[nH]c(C(=O)N[C@H](CO)c3cccc(Cl)c3)c2)c(Cl)cn1` [ULIXERTINIB], the Kd (in experiment [1]; in experiment [2]; in experiment [3]; at GTP-binding protein 4; in [4]; in experiment [5]) was > 30 µM (inactive) in each case. The Kd (in [6]; in experiment [7]; on ADP/ATP translocase 2; in experiment [8]; in [9]; in experiment [10]) was > 30 µM (inactive) each time. Further, the Kd on Wee1-like protein kinase is > 30 µM (inactive).
